The numbers were not newly measured in US6642259B1, “Immune stimulating dietary supplement and method of use thereof” (Trustees of Tufts College, priority 1999, dated 2003), which cites them from elsewhere.

Data set [1] relates to T cell function. The note with it: supplementation of old mice.
The subject of data set [2] is T-cell mediated funtion. To be noted: supplementation of the elderly human.

vitamin E: the T cell function result in data set [1] is “increased”. Besides, the “immunological responses (e.g. T-cell mediated funtion)” value in data set [2] is recorded as “improved”.
